Test results as given in BindingDB's records for doi:10.1021/jm970389+ (Abbott Laboratories, 1998).

Test: Binding potency against Platelet activating factor (PAF) receptor using [3H]C18-PAF as radioligand on rabbit platelet membranes

Compound	Ki
C#Cc1cccc2c1c(C(=O)c1ccc(Cn3c(C)nc4cnccc43)c(F)c1)cn2C(=O)NC [4-Ethynyl-3-[3-fluoro-4-(2-methyl-imidazo[4,5-c]pyridin-1-ylmethyl)-benzoyl]-indole-1-carboxylic acid methylamide]	0.63 nM
COC(=O)c1ccc2c(c1)c(C(=O)c1ccc(Cn3c(C)nc4cnccc43)cc1)cn2C(=O)N(C)C [1-Dimethylcarbamoyl-3-[4-(2-methyl-imidazo[4,5-c]pyridin-1-ylmethyl)-benzoyl]-1H-indole-5-carboxylic acid methyl ester]	110 nM
C#Cc1cccc2c1c(C(O)c1ccc(Cn3c(C)nc4cnccc43)c(F)c1)cn2C(=O)N(C)C (centres undefined) [4-Ethynyl-3-{[3-fluoro-4-(2-methyl-imidazo[4,5-c]pyridin-1-ylmethyl)-phenyl]-hydroxy-methyl}-indole-1-carboxylic acid dimethylamide]	1.5 nM
Cc1nc2cnccc2n1Cc1cccc(C(=O)c2cn(C(=O)N(C)C)c3cc(-c4ccc(F)cc4)ccc23)c1 [6-(4-Fluoro-phenyl)-3-[3-(2-methyl-imidazo[4,5-c]pyridin-1-ylmethyl)-benzoyl]-indole-1-carboxylic acid dimethylamide]	180 nM
Cc1nc2ncccc2n1Cc1ccc(C(=O)c2cn(C(=O)N(C)C)c3cccc(Cl)c23)cc1 [4-Chloro-3-[4-(2-methyl-imidazo[4,5-b]pyridin-1-ylmethyl)-benzoyl]-indole-1-carboxylic acid dimethylamide]	0.9 nM
Cc1nc2cnccc2n1CC1CCN(C(=O)c2cn(C(=O)N(C)C)c3cc(-c4ccc(F)cc4)ccc23)CC1 [6-(4-Fluoro-phenyl)-3-[4-(2-methyl-imidazo[4,5-c]pyridin-1-ylmethyl)-piperidine-1-carbonyl]-indole-1-carboxylic acid dimethylamide]	2.5 nM
Cc1nc2cnccc2n1Cc1ccc(C(=O)c2cn(C(=O)N(C)C)c3ccccc23)cc1 [3-[4-(2-Methyl-imidazo[4,5-c]pyridin-1-ylmethyl)-benzoyl]-indole-1-carboxylic acid dimethylamide]	6.8 nM
Cc1nc2cnccc2n1Cc1ccc(C(=O)c2c[nH]c3c(OCc4ccccc4)cccc23)cc1 [(7-Benzyloxy-1H-indol-3-yl)-[4-(2-methyl-imidazo[4,5-c]pyridin-1-ylmethyl)-phenyl]-methanone]	12 nM
COC(=O)c1cccc2c1c(C(=O)c1ccc(Cn3c(C)nc4ccccc43)cc1)cn2C(=O)N1CCCC1 [3-[4-(2-Methyl-benzoimidazol-1-ylmethyl)-benzoyl]-1-(pyrrolidine-1-carbonyl)-1H-indole-4-carboxylic acid methyl ester]	1.7 nM
COC(=O)c1cccc2c1c(C(=O)c1ccc(Cn3c(C)nc4c(=O)[nH]ccc43)cc1)cn2C(=O)N(C)C [1-Dimethylcarbamoyl-3-[4-(2-methyl-4-oxo-4,5-dihydro-imidazo[4,5-c]pyridin-1-ylmethyl)-benzoyl]-1H-indole-4-carboxylic acid methyl ester]	4 nM
Cc1nc2cnccc2n1-c1ccc(C(=O)c2cn(C(=O)N(C)C)c3cc(-c4ccc(F)cc4)ccc23)cc1 [6-(4-Fluoro-phenyl)-3-[4-(2-methyl-imidazo[4,5-c]pyridin-1-yl)-benzoyl]-indole-1-carboxylic acid dimethylamide]	260 nM
Cc1nc2cnccc2n1Cc1ccc(C(=O)c2cn(C(=O)N(C)C)c3cccc(O)c23)cc1 [4-Hydroxy-3-[4-(2-methyl-imidazo[4,5-c]pyridin-1-ylmethyl)-benzoyl]-indole-1-carboxylic acid dimethylamide]	6.1 nM
COC(=O)c1cccc2c1c(C(=O)c1ccc(Cn3c(C)nc4cnccc43)c(F)c1)cn2C(=O)N(C)C [1-Dimethylcarbamoyl-3-[3-fluoro-4-(2-methyl-imidazo[4,5-c]pyridin-1-ylmethyl)-benzoyl]-1H-indole-4-carboxylic acid methyl ester]	5 nM
COC(=O)c1cccc2c1c(C(=O)c1ccc(Cn3c(C)nc4cnccc43)cc1)cn2CC(=O)C(C)(C)C [1-(3,3-Dimethyl-2-oxo-butyl)-3-[4-(2-methyl-imidazo[4,5-c]pyridin-1-ylmethyl)-benzoyl]-1H-indole-4-carboxylic acid methyl ester]	0.67 nM
Cc1nc2cnccc2n1CCCCCC(=O)c1cn(C(=O)N(C)C)c2cccc(-c3ccc(F)cc3)c12 [4-(4-Fluoro-phenyl)-3-[6-(2-methyl-imidazo[4,5-c]pyridin-1-yl)-hexanoyl]-indole-1-carboxylic acid dimethylamide]	3.2 nM
Cc1nc2cnccc2n1C1CCN(C(=O)c2cn(C(=O)N(C)C)c3cc(-c4ccc(F)cc4)ccc23)CC1 [6-(4-Fluoro-phenyl)-3-[4-(2-methyl-imidazo[4,5-c]pyridin-1-yl)-piperidine-1-carbonyl]-indole-1-carboxylic acid dimethylamide]	3.4 nM
Cc1nc2cnccc2n1Cc1ccc(C(=O)c2cn(C(=O)N(C)C)c3cccc(OC(=O)N(C)C)c23)cc1 [Dimethyl-carbamic acid 1-dimethylcarbamoyl-3-[4-(2-methyl-imidazo[4,5-c]pyridin-1-ylmethyl)-benzoyl]-1H-indol-4-yl ester]	3.6 nM

Compound	Ki
CCOCCn1cc(C(=O)CN2CCC(n3c(C)nc4cnccc43)CC2)c2c(Cl)cccc21 [1-[4-Chloro-1-(2-ethoxy-ethyl)-1H-indol-3-yl]-2-[4-(2-methyl-imidazo[4,5-c]pyridin-1-yl)-piperidin-1-yl]-ethanone]	15 nM
COC(=O)c1[nH]c2cccc(OC)c2c1C(=O)c1ccc(Cn2c(C)nc3cnccc32)cc1 [4-Methoxy-3-[4-(2-methyl-imidazo[4,5-c]pyridin-1-ylmethyl)-benzoyl]-1H-indole-2-carboxylic acid methyl ester]	0.51 nM
CCc1cccc2c1c(C(=O)c1ccc(Cn3c(C)nc4cnccc43)cc1)cn2C(=O)N(C)C [4-Ethyl-3-[4-(2-methyl-imidazo[4,5-c]pyridin-1-ylmethyl)-benzoyl]-indole-1-carboxylic acid dimethylamide]	0.91 nM
Cc1nc2cnccc2n1Cc1ccc(C(=O)c2cn(C(=O)N(C)C)c3cccc(Cl)c23)cc1 [4-Chloro-3-[4-(2-methyl-imidazo[4,5-c]pyridin-1-ylmethyl)-benzoyl]-indole-1-carboxylic acid dimethylamide]	5.4 nM
Cc1nc2cnccc2n1CN1CCN(S(=O)(=O)c2cn(C(=O)N(C)C)c3cc(-c4ccc(F)cc4)ccc23)CC1 [6-(4-Fluoro-phenyl)-3-[4-(2-methyl-imidazo[4,5-c]pyridin-1-ylmethyl)-piperazine-1-sulfonyl]-indole-1-carboxylic acid dimethylamide]	1.2 nM
Cc1nc2cnccc2n1Cc1ccc(C(=O)c2cn(C(=O)N(C)C)c3cccc(Br)c23)cc1 [4-Bromo-3-[4-(2-methyl-imidazo[4,5-c]pyridin-1-ylmethyl)-benzoyl]-indole-1-carboxylic acid dimethylamide]	11 nM
Cc1nc2cnccc2n1Cc1ccc(C(=O)c2cn(C(=O)N(C)C)c3ccc(-c4ccc(F)cc4)cc23)cc1 [5-(4-Fluoro-phenyl)-3-[4-(2-methyl-imidazo[4,5-c]pyridin-1-ylmethyl)-benzoyl]-indole-1-carboxylic acid dimethylamide]	190 nM
Cc1nc2cnccc2n1Cc1csc(C(=O)c2cn(C(=O)N(C)C)c3cc(-c4ccc(F)cc4)ccc23)n1 [6-(4-Fluoro-phenyl)-3-[4-(2-methyl-imidazo[4,5-c]pyridin-1-ylmethyl)-thiazole-2-carbonyl]-indole-1-carboxylic acid dimethylamide]	39 nM
COC(=O)c1cccc2c1c(C(=O)c1ccc(Cn3c(C)nc4cccnc43)cc1)cn2C(=O)N(C)C [1-Dimethylcarbamoyl-3-[4-(2-methyl-imidazo[4,5-b]pyridin-3-ylmethyl)-benzoyl]-1H-indole-4-carboxylic acid methyl ester]	10 nM
Cc1nc2cnccc2n1Cc1ccc(C(=O)c2cn(C(=O)N(C)C)c3cccc(NC(=O)c4ccccc4)c23)cc1 [4-Benzoylamino-3-[4-(2-methyl-imidazo[4,5-c]pyridin-1-ylmethyl)-benzoyl]-indole-1-carboxylic acid dimethylamide]	2 nM
COC(=O)c1cccc2c1c(C(=O)c1ccc(Cn3c(C)nc4cnccc43)cc1)cn2C(C)C [1-Isopropyl-3-[4-(2-methyl-imidazo[4,5-c]pyridin-1-ylmethyl)-benzoyl]-1H-indole-4-carboxylic acid methyl ester]	1.3 nM
C#Cc1cccc2[nH]cc(C(=O)c3ccc(Cn4c(C)nc5cnccc54)c(F)c3)c12 [(4-Ethynyl-1H-indol-3-yl)-[3-fluoro-4-(2-methyl-imidazo[4,5-c]pyridin-1-ylmethyl)-phenyl]-methanone]	2.2 nM
COC(=O)c1cccc2c1c(C(=O)c1ccc(Cn3c(C)nc4cnccc43)cc1)cn2S(=O)(=O)C(C)C [3-[4-(2-Methyl-imidazo[4,5-c]pyridin-1-ylmethyl)-benzoyl]-1-(propane-2-sulfonyl)-1H-indole-4-carboxylic acid methyl ester]	0.19 nM
COC(=O)c1cccc2c1c(C(=O)c1ccc(Cn3ccc4nc(C)nc-4c3)cc1)cn2C(=O)N(C)C [1-Dimethylcarbamoyl-3-[4-(2-methyl-imidazo[4,5-c]pyridin-5-ylmethyl)-benzoyl]-1H-indole-4-carboxylic acid methyl ester]	> 1000 nM
Cc1nc2cnccc2n1Cc1ccc(C(=O)c2cn(C(=O)N(C)C)c3cccc(F)c23)cc1 [4-Fluoro-3-[4-(2-methyl-imidazo[4,5-c]pyridin-1-ylmethyl)-benzoyl]-indole-1-carboxylic acid dimethylamide]	5.1 nM
Cc1nc2cnccc2n1Cc1ccc(S(=O)(=O)c2cn(C(=O)N(C)C)c3ccccc23)cc1 [3-[4-(2-Methyl-imidazo[4,5-c]pyridin-1-ylmethyl)-benzenesulfonyl]-indole-1-carboxylic acid dimethylamide]	12 nM
COC(=O)c1cccc2c1c(C(=O)c1ccc(Cn3c(C)nc4c[n+]([O-])ccc43)cc1)cn2C(=O)N(C)C [1-Dimethylcarbamoyl-3-[4-(2-methyl-5-oxy-imidazo[4,5-c]pyridin-1-ylmethyl)-benzoyl]-1H-indole-4-carboxylic acid methyl ester]	23 nM
